Results as given in article PMC4907692, “Engineering vanilloid-sensitivity into the rat TRPV2 channel” (eLife, 2016).
Where two headings read alike, the source gives them in different places.

Tests used:
[1] = biological target: T1, full-length GFP-tagged TRPV1 (Rattus norvegicus, UniProt O35433); test: 3H-RTx binding to intact S. cerevisiae cells expressing GFP-tagged TRPV1; details: 37°C; for Kd: read-out: Kd of 3H-RTx binding (Hill fit)
T1 construct: Smooth function for full-length GFP-tagged TRPV1 is a fit of the Hill equation; expressed in transfected cells; host or cells: Saccharomyces cerevisiae (intact cells)
T1 sequence (O35433 whole entry): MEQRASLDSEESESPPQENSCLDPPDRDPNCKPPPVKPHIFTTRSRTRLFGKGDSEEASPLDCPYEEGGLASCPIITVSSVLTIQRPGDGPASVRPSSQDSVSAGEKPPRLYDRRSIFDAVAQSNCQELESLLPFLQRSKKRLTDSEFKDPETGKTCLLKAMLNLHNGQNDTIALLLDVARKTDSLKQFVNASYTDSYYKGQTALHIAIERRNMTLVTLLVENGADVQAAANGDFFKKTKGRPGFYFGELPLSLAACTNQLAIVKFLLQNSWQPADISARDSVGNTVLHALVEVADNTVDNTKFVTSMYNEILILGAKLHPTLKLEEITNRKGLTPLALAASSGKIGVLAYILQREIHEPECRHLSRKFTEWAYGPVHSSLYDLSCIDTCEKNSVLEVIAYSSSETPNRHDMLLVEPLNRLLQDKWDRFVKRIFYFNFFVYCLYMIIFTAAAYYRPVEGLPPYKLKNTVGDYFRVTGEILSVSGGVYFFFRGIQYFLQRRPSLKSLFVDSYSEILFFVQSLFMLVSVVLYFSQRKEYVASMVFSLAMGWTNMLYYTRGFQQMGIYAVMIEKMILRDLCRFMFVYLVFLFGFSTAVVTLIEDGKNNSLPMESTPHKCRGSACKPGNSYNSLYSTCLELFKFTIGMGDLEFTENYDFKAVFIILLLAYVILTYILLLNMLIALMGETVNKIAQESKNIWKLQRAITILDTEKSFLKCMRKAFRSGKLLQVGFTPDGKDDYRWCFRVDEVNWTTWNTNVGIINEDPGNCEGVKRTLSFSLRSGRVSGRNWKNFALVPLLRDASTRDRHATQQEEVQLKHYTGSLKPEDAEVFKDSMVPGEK
Procedure: (§1) To evaluate whether these constructs were competent to bind vanilloids, we initially measured the binding of [^3H]-RTx ([Szallasi and Blumberg, 1999]; [Szallasi et al., 1999]) to intact yeast cells expressing each of the constructs.
(§2) S. cerevisiae cells overexpressing TRPV1 constructs to be used in ligand binding assays on intact cells (Figure 1E,F) were grown as for small scale expression trials. 24 hr after protein induction cells were spun down at 4000g, the supernatant was removed and the pellet resuspended in 1x PBS, normalizing OD600 to 75 for each sample, and aliquoted for storage at -80°C. ^3H-RTx binding assays on cells were performed at 37°C as previously described ([Feng et al., 2015]), but where non-specific binding of RTx was measured using cells expressing GFP alone. The binding of RTx to TRPV1 and TRPV2 in membranes (e.g. Figure 2A,B and 5C) was performed at 37°C unless otherwise stated using membranes prepared from large scale protein preparations of S. cerevisiae containing rat TRPV1 and TRPV2 with a 1D4 tag expressed using a constitutive promoter as in [Moiseenkova-Bell et al., 2008]. Data for binding of RTx to membranes was corrected for non-specific binding, determined using either excess non-radioactive ligand or heat inactivation of the protein, as previously described ([Feng et al., 2015]). The TRPV1-activating double-knot toxin (DkTx) was produced recombinantly, folded in vitro and purified as previously described ([Bae et al., 2012]). Yeast membranes were incubated with DkTx solution for 1 hr at 4°C with gentle agitation prior to undertaking RTx binding assays.

[2] = biological target: T2, TRPV1 Y511A (dual GFP- and His-tagged) (Rattus norvegicus, UniProt O35433, Y511A); test: 3H-RTx binding to intact S. cerevisiae cells expressing TRPV1 Y511A; details: 37°C, Figure 1F
T2 construct: expressed in transfected cells; host or cells: Saccharomyces cerevisiae (intact cells)
T2 sequence (O35433 whole entry Y511A): as the sequence (O35433 whole entry) above, with Y511A counted along it
Procedure: as §1
as §2, with “The TRPV1-activating double-knot toxin (DkTx) was produced recombinantly, folded in vitro and purified as previously described ([Bae et al., 2012]). Yeast membranes were incubated with DkTx solution for 1 hr at 4°C with gentle agitation prior to undertaking RTx binding assays.” left out

[3] = biological target: T3, TRPV1 S512F (Rattus norvegicus, UniProt O35433, S512F); test: Two-electrode voltage-clamp in Xenopus oocytes, TRPV1 S512F; format: cell-based; details: 100 nM RTx
T3 construct: expressed in transfected cells; host or cells: Xenopus oocytes (cRNA injection)
T3 sequence (O35433 whole entry S512F): as the sequence (O35433 whole entry) above, with S512F counted along it
Description: (§3) To further investigate the putative vanilloid binding pocket in TRPV1, we inspected the cryo-EM structure of TRPV1, looking for residues that are located nearby to the putative RTx density (Figure 1B; regions/residues highlighted in yellow) and that differ between TRPV1 and TRPV2 channels (Figure 3—figure supplement 1; regions highlighted in magenta). […] To quantify the contribution of each of these residues to TRPV1 channel activation by RTx under our experimental conditions, we mutated each to the corresponding residue in TRPV2. We then expressed each construct in oocytes and used the two electrode voltage-clamp technique to study activation by RTx and by the non-specific TRPV channel activator 2-APB. We recorded time courses for channel activation by each agonist while stepping the membrane potential from −60 to +60 mV every 3 s from a holding potential of 0 mV using an external recording solution containing 100 mM KCl (internal K^+ concentration in a healthy oocyte is 100 mM) (Figure 3A, left). We also recorded current-voltage (I-V) relations by stepping over a wider range of voltages in the absence and presence of activators, or in the presence of ruthenium red (RR), a non-specific inhibitor of TRP channels (Figure 3A, right). […]

[4] = biological target: T4, TRPV2 QM (Rattus norvegicus, UniProt Q9WUD2, F472S/L507M/L510T/Q530E); test: Two-electrode voltage-clamp in Xenopus oocytes, TRPV2 QM; format: cell-based; details: 100 nM RTx
T4 construct: expressed in transfected cells; host or cells: Xenopus oocytes (cRNA injection)
T4 sequence (Q9WUD2 1-761 F472S/L507M/L510T/Q530E): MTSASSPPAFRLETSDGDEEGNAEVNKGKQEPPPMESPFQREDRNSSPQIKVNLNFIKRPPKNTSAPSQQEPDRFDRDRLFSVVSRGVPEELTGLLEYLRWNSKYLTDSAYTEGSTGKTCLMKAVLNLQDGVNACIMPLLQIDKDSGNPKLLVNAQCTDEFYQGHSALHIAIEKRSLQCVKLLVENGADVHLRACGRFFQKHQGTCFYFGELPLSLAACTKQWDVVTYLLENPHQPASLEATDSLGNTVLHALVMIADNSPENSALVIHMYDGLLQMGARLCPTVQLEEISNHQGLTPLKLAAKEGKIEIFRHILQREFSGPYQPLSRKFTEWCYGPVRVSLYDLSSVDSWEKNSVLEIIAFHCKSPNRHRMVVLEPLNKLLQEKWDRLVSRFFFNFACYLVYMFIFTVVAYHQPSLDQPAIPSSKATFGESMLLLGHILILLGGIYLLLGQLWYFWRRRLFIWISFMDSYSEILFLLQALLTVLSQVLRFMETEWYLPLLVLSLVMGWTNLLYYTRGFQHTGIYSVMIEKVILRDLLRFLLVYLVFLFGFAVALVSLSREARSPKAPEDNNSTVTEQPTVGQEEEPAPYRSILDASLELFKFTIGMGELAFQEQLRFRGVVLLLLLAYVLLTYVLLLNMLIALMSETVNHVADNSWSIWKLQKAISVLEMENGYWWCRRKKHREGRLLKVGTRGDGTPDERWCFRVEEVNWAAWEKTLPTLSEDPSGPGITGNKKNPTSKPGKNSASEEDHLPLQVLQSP
Description: as §3

SMILES: C=C(C)[C@]12C[C@@H](C)[C@@]34O[C@](Cc5ccccc5)(O[C@@H]1[C@@H]3C=C(COC(=O)Cc1ccc(O)c(OC)c1)C[C@]1(O)C(=O)C(C)=C[C@@H]41)O2 [RTx, resiniferatoxin]
- Hill slope (nH) ([1]; Figure 1E): 0.78
- Kd ([1]; Figure 1E): 7 nM
- Hill slope (nH) ([1]; Figure 1F): 0.82
- Kd ([1]; Figure 1F): 7.2 nM
- Hill slope (nH) [2]: 1.1
- Kd ([2]; read-out: Kd of 3H-RTx binding (Hill fit)): > 238 nM
- dissociation of RTx after removal from the recording chamber [3]: could readily see dissociation of RTx
- channel activation by RTx [4]: robustly activated
